{"source": "patent US9532553B2", "about": "“Process for treating with a chemical compound a body of water used in aquaculture” (SOLVAY SA, priority 2009, dated 2017)", "key": {"[1]": {"test_system": "salmon lice (Lepeophtheirus salmonis)", "details": "Example 3: 1500 ppm hydrogen peroxide in 500 m^3 sea water, added in about 4.5 min, treatment continued 22.5 min, then flushed; infested Atlantic salmons"}, "Atlantic salmons": {"test_system": "Atlantic salmons", "details": "Example 3: 1500 ppm hydrogen peroxide in 500 m^3 sea water, added in about 4.5 min via eductor nozzle agitation system, treatment continued 22.5 min", "experimental": "The treatment was continued for 22.5 minutes then the treated water was flushed away and replaced by fresh seawater.\nIn Example 3, the body of water comprised additionally Atlantic salmons as living organisms, said salmons being infested with external parasites, i.e. salmon lice (Lepeophtheirus salmonis). The purpose of the test was to remove these parasites from the fish."}}, "data": [{"smiles": "OO", "note": "[hydrogen peroxide]", "values": [{"measurement": "removal of salmon lice from the treated fish", "setting": "[1]", "value": "effective in removing the salmon lice"}, {"measurement": "injury to the fish", "setting": "Atlantic salmons", "value": "without injuring the fish"}]}]}
